One data set relates to Id1. Put plainly: Compound screen: BMP4-induced Id1 expression, Western blot. Particulars: B16-F10 and Ret cells, BMP4 10 ng/ml and compound simultaneously, 24 h, rated relative to CBD. Format: cell-based, murine. As to the method: To screen compounds with an inhibitory effect on Id1 and Id3 expression, cells were simultaneously stimulated with BMP4 (10 ng/ml, 315-27, Peprotech) and substances at the indicated concentrations for 24 h. DMSO served as a solvent control. Effects on Id1 and Id3 expression levels were analysed by Western blotting.
(§1) Western blot analysis was performed using standard methods. The following antibodies were used for protein detection: Id1 (195-14, CalBioreagents), Id3 (17-3, CalBioreagents), β-actin (AC-15, Sigma Aldrich), Vinculin (VIN-11-5, Sigma Aldrich). Protein bands were detected using HRP conjugated secondary antibodies (P0447, P0448, Agilent Technologies) and enhanced chemiluminescence (32106, Thermo Fisher Scientific).
B16-F10 and Ret melanoma cells were treated with BMP4 to induce Id1 and Id3 expression, and simultaneously treated with each of the compounds individually for a 24 h period.

The test system of another data set is Ret melanoma cells. Put plainly: Tumor growth and initiation in vivo, Ret. More on the design: species or system mice. From the text:
B16-F10 (A) or Ret (B) cells were co-injected with Matrigel into syngeneic mice. […] Numbers indicate the number of animals with a tumor in each group. Bar graphs show the mean tumor volume in each group at the day when the first animal had reached the legal tumor size limit. Kaplan-Meier curves show the percentage of tumor-free animals in percent as a measure for tumor initiation.
Cells were harvested using trypsin/EDTA and washed in PBS. The indicated numbers of living melanoma cells were subcutaneously injected into the flank of syngeneic mice in 100 μl PBS. For co-injection experiments, the indicated number of living cells was resuspended in 100 μl Matrigel HC (10 mg/ml, #354262, Corning Inc.), and subcutaneously injected into the flank. Tumor volume was calculated using the formula 4/3π (d1/2×d2/2×d3/2), where d1−d3 represents the diameter of the tumor in three dimensions. […] All animal experiments were approved by the local authorities, and performed according to the German legal requirements. Tumor initiating cell (TIC) frequency and p-values were calculated using ELDA software.
To investigate the anti-tumor properties of the selected Id1/Id3-inhibiting compounds, groups of experimental mice (8 per group) were injected subcutaneously with B16-F10 or Ret melanoma cells. […] Melanoma initiation and growth was assessed over a period of 90 days.

In data set [1] the test system is mouse embryonic fibroblasts (MEFs). Put plainly: Proliferation/cytotoxicity in mouse embryonic fibroblasts, 2D culture. Format: cell-based.
Another data set concerns Id3. Nature of the data set: Id3 expression in HUVECs, Western blot. Format: cell-based, Human. On the procedure:
Human umbilical vein endothelial cells (HUVECs) and lymphatic endothelial cells (LECs) were cultivated in EBM™-2 Endothelial Cell Growth Basal Medium supplemented with EGM™-2 MV Microvascular Endothelial Cell Growth Medium-2 SingleQuots™ Kit (both Lonza, catalogue numbers CC-3156 and CC4176, respectively), hereafter referred to as endothelial cell growth medium. HUVECs and LECs were cultivated in the presence of the indicated concentrations of X6632, or with DMSO as a solvent control. After 24 hours, cells were harvested. Lysates were western blotted and probed with antibodies against Id1 and Id3. Western blots probed with vinculin antibodies served as loading controls.
as §1
The effect of X6632 on Id1 and Id3 expression in cultivated proliferating human umbilical vein endothelial cells (HUVECs) was investigated. […] LDN-193189, an antagonist of BMP receptor isotypes ALK2 and ALK3, served as a positive control reference for inhibition of Id1 and Id3 expression.

The subject of another data set is HUVEC spheroids. Put plainly: Sprouting from HUVEC spheroids in collagen. In kind it is cell-based, Human. Particulars: X6632 10 μM; 50 ng/ml hVEGF-A; 24 h; collagen type I. As to the method:
(§2) HUVECs or LECs were resuspended in endothelial cell growth medium containing 20% methylcellulose at 1.6×10^4 cells per millilitre. Twenty-five microliters of cell suspension were pipetted as drops on non-adherent plastic plates, which were then inverted to form hanging drop cultures. Plates were incubated for 24 h at 37° C. Spheroids were harvested, then embedded in collagen type I (2 mg/ml) containing 0.5% methylcellulose. After polymerization, gels were cultivated with endothelial cell growth medium containing 50 ng/ml hVEGF-A in the presence or absence of X6632 (10 μM), or DMSO as a solvent control. Sprouting was assessed after cultivation for 24 h using microscope-based image acquisition. Representative images are shown.
(§3) To determine whether this is the case, the impact of […] on angiogenic and lymphangiogenic sprouting from endothelial cell spheriods was investigated. To this end, HUVECs and LECs were grown as spheriods in hanging drop cultures. The spheroids were then embedded in collagen. Sprouting from the spheroids in the presence and absence of X6632 was monitored using microscope-based image analysis.

The test system of the next data set is LEC spheroids. Nature of the data set: Sprouting from LEC spheroids in collagen. Particulars: X6632 10 μM; 50 ng/ml hVEGF-A; 24 h; collagen type I. In kind it is cell-based. As to the method: as §2, §3

“Also recorded” adds a separate entry of the source.

Regarding `CCCCc1cc2c(O)cc(C3(CCCC)CCCCC3)cc2oc1=O` [X6632, 7-(1-Butylcyclohexyl)-5-hydroxy-3-butyl-2H-chromen-2-one], the “Inhibitory effect on Id1 protein expression” value with Id1 is recorded as “more potent”; in the data set on Id1 (listed as X 6632), “strongest inhibitory activities”. In addition, the “Melanoma growth and initiation” value in the data set with Ret melanoma cells (Ret cells co-injected with Matrigel, syngeneic mice, daily i.p. first 14 days, compared to DMSO) was “significantly inhibit; also recorded: potent inhibitors”. Also, the “Number of mice that did not develop any tumors” value in the data set with Ret melanoma cells (Ret cells, 8 mice per group, assessed over 90 days) was 1 mice. The “Tumor growth and initiation compared to CBD” value in the data set on Ret melanoma cells (Ret experiment, daily i.p. first 14 days) is “trend towards reduced tumor initiation and growth”. Also, the “Proliferation / cytotoxicity, non-transformed MEFs” value in data set [1] was “strongly inhibited”. Also, the “Expression of Id3 protein” value in the data set on Id3 (HUVECs, indicated concentrations, 24 hours (FIG. 10B)) was “inhibits”. The Id3 protein expression result in the data set on Id3 (proliferating HUVECs, 24 hours (FIG. 10A)) is recorded as “completely abrogated”. For the same molecule, in the data set on HUVEC spheroids, the “Sprouting from HUVEC spheroids” value was “substantially inhibited”. The “Sprouting from LEC spheroids” value with LEC spheroids is “substantially inhibited”.

(Values after patent US20220259172A1, “CHEMICAL INHIBITORS OF ID PROTEINS FOR THE TREATMENT OF CANCER AND OTHER DISEASES” (Universität Heidelberg, priority 2019, published 2022).)
